Source: article PMC12186298, “Phase 1 clinical trial of eneboparatide, a novel PTH receptor 1 agonist” (Endocrine Connections, 2025)
Peptide text beside a SMILES is read from it.

How the values were obtained:
healthy subjects [1] = experiment: Safety and tolerability, adverse events, Part A SAD; assay type: in vivo, human
Procedure: (§1) Seven sequential cohorts were included in Part A. The first cohort was single-blind and included four subjects, of which three subjects were randomized to receive 5 μg eneboparatide and one subject was randomized to receive placebo. […] Subjects in Part A were admitted to the phase 1 study centre on day 1 and received the study drug at the clinical site on day 1 as a single, subcutaneous abdominal injection in the morning. They were discharged on day 4 and were asked to return for a follow-up (FU) visit on day 5–8.

patients with cHP = system: patients with cHP; parameters: method as in PMID 38449442; conditions: 3 months; cited from earlier work
healthy subjects [2] = experiment: Pharmacodynamics (serum calcium, phosphorus, endogenous PTH, urine, bone markers), Part B MAD; assay type: in vivo, human
Procedure: Blood samples were taken on day 1 at pre-dose, at several time points post-dose up to day 4 and at FU (Part A), on day 1–14 (pre-dose), and day 15–17 and at FU (Part B) for the analysis of total sCa, albumin-adjusted serum calcium (ADsCa), and sPh. These parameters were also measured on day 1, 7 and 14 at several time points post-dose. Samples for serum creatinine were taken at predefined time points to allow for calculation of fractional excretion of calcium (FECa). Endogenous serum PTH(1–84) was measured on day 1 (pre-dose and 12 h post-dose), day 2–4 and at FU (Part A), on pre-dose on day 1, 7, and 14 and on day 15–17 and FU (Part B). In Part B, additional blood samples were taken on day 1, day 14 and at FU for the analysis of serum bone turnover biomarkers, including carboxy-terminal telopeptide of type I collagen (s-CTx), and procollagen type 1 amino-terminal propeptide (P1NP).
Urine collection was performed over 24 h for the analysis of calcium and creatinine on day 1–3 and at FU (Part A) and day 1, day 7, day 14 and at FU (Part B). FECa (%) was calculated by the formula: FECa = (urine calcium/serum calcium)/(urine creatinine/serum creatinine).

animal models of HP = conditions: cited from earlier work
[3] = Plasma pharmacokinetics, single ascending dose (Part A); assay type: in vivo, human; conditions: for AUC(0–∞) / Cmax / Tmax: Part A SAD; for Cmax: immunoaffinity LC-MS/MS, mean ± SD
Procedure: as §1
Plasma samples were collected pre-dose and at scheduled time points up to 6 h post-dose on day 1 (Parts A and B) and day 14 (Part B). The analysis of eneboparatide in plasma samples was performed at QPS (The Netherlands) using a hybrid immunoaffinity liquid chromatography–mass spectrometry/mass spectrometry (LC-MS/MS) method, with a validated lower limit of quantification (LLOQ) of 50 pg/mL.

healthy subjects [4] = experiment: Antidrug antibodies (ADA) in plasma, Part B; assay type: in vivo, human; conditions: following 14 days of administration
Procedure: Safety and tolerability assessments consisted of adverse events (AEs), clinical laboratory (clinical chemistry, haematology, coagulation, and urinalysis), vital signs (blood pressure, pulse rate, respiratory rate, and temperature), 12-lead ECG (Part B), 24 h continuous cardiac monitoring (telemetry; Part A), body weight, physical examination, injection site reaction, and measurement of antidrug antibodies (ADA) in plasma (Part B).

## CC[C@H](C)[C@H](NC(=O)[C@H](CCC(=O)O)NC(=O)[C@H](C)NC(=O)[C@@H](NC(=O)[C@H](Cc1c[nH]cn1)NC(=O)[C@@H](NC(=O)[C@H](CCC(=O)O)NC(=O)[C@H](C)NC(=O)[C@@H](NC(=O)[C@H](CC(C)C)NC(=O)[C@H](CCCCN)NC(=O)[C@H](Cc1c[nH]cn1)NC(=O)[C@H](CC(C)C)NC(=O)[C@H](Cc1ccccc1)NC(=O)[C@H](C)NC(=O)[C@H](CCCNC(=N)N)NC(=O)[C@H](CCCNC(=N)N)NC(=O)[C@H](CCCNC(=N)N)NC(=O)[C@H](C)NC(=O)[C@H](CC(=O)O)NC(=O)[C@H](CCC(N)=O)NC(=O)[C@@H](NC(=O)[C@H](Cc1c[nH]c2ccccc12)NC(=O)[C@H](CCCCN)NC(=O)[C@H](C)NC(=O)[C@H](CCCNC(=N)N)NC(=O)[C@H](CCC(N)=O)NC(=O)[C@H](Cc1c[nH]cn1)NC(=O)[C@H](CCSC)NC(=O)[C@H](CC(C)C)NC(=O)[C@H](CCC(N)=O)NC(=O)[C@@H](NC(=O)[C@H](CCC(=O)O)NC(=O)[C@H](C)NC(=O)[C@@H](NC(=O)[C@H](C)N)C(C)C)[C@@H](C)CC)[C@@H](C)CC)[C@@H](C)CC)[C@@H](C)CC)[C@@H](C)O)C(=O)O [eneboparatide] (H-AVAEIQLMHQRAKWIQDARRRAFLHKLIAEIHTAEI-OH; N-terminus and C-terminus assumed)
Healthy subjects [1]
  vomiting, subjects: none
Healthy subjects [1]; single sc 5 μg, n = 3
  Catheter site haematoma, subjects with TEAE: 0
  Decreased appetite, subjects with TEAE: 0
  Fatigue, subjects with TEAE: 0
  Headache, subjects with TEAE: 1
  Injection site erythema, subjects with TEAE: 0
  Injection site pain, subjects with TEAE: 0
  Nausea, subjects with TEAE: 0
  Somnolence, subjects with TEAE: 0
Healthy subjects [1]; single sc 10 μg, n = 6
  Catheter site haematoma, subjects with TEAE: 1
  Decreased appetite, subjects with TEAE: 0
  Fatigue, subjects with TEAE: 1
  Headache, subjects with TEAE: 1
  Injection site erythema, subjects with TEAE: 0
  Injection site pain, subjects with TEAE: 0
  Nausea, subjects with TEAE: 0
  Somnolence, subjects with TEAE: 0
Healthy subjects [1]; single sc 20 μg, n = 6
  Catheter site haematoma, subjects with TEAE: 0
  Decreased appetite, subjects with TEAE: 1
  Fatigue, subjects with TEAE: 1
  Headache, subjects with TEAE: 1
  Injection site erythema, subjects with TEAE: 0
  Injection site pain, subjects with TEAE: 1
  Nausea, subjects with TEAE: 0
  Somnolence, subjects with TEAE: 0
Healthy subjects [1]; single sc 40 μg, n = 6
  Catheter site haematoma, subjects with TEAE: 0
  Decreased appetite, subjects with TEAE: 0
  Fatigue, subjects with TEAE: 0
  Headache, subjects with TEAE: 0
  Injection site erythema, subjects with TEAE: 0
  Injection site pain, subjects with TEAE: 0
  Nausea, subjects with TEAE: 0
  Somnolence, subjects with TEAE: 0
Healthy subjects [1]; single sc 60 μg, n = 6
  Catheter site haematoma, subjects with TEAE: 0
  Decreased appetite, subjects with TEAE: 0
  Fatigue, subjects with TEAE: 1
  Headache, subjects with TEAE: 0
  Injection site erythema, subjects with TEAE: 0
  Injection site pain, subjects with TEAE: 0
  Nausea, subjects with TEAE: 1
  Somnolence, subjects with TEAE: 0
Healthy subjects [1]; single sc 90 μg, n = 6
  Catheter site haematoma, subjects with TEAE: 1
  Decreased appetite, subjects with TEAE: 2
  Fatigue, subjects with TEAE: 0
  Headache, subjects with TEAE: 2
  Injection site erythema, subjects with TEAE: 2
  Injection site pain, subjects with TEAE: 2
  Nausea, subjects with TEAE: 3
  Somnolence, subjects with TEAE: 1
Healthy subjects [1]; single sc 120 μg, n = 6
  Catheter site haematoma, subjects with TEAE: 1
  Decreased appetite, subjects with TEAE: 3
  Fatigue, subjects with TEAE: 0
  Headache, subjects with TEAE: 3
  Injection site erythema, subjects with TEAE: 0
  Injection site pain, subjects with TEAE: 0
  Nausea, subjects with TEAE: 4
  Somnolence, subjects with TEAE: 4
Healthy subjects [1]; total eneboparatide, n = 39
  Catheter site haematoma, subjects with TEAE: 3 (7.7) n (%)
  Decreased appetite, subjects with TEAE: 6 (15.4) n (%)
  Fatigue, subjects with TEAE: 3 (7.7) n (%)
  Headache, subjects with TEAE: 8 (20.5) n (%)
  Injection site erythema, subjects with TEAE: 2 (5.1) n (%)
  Injection site pain, subjects with TEAE: 3 (7.7) n (%)
  Nausea, subjects with TEAE: 8 (20.5) n (%)
  Somnolence, subjects with TEAE: 5 (12.8) n (%)
Healthy subjects [1]; transient, at 60, 90 and 120 μg
  nausea, subjects: eight
Patients with cHP
  tolerability and independence from conventional therapy: well-tolerated and allowed independence from conventional therapy
Healthy subjects [2]
  endogenous sPTH compared to placebo: rapidly and dose-dependently declined
Healthy subjects [2]; 80 μg dose
  time for ADsCa to return to near baseline after cessation of treatment: ~3 days
Healthy subjects [2]; 80 μg/d
  subjects with transient hypercalcaemia in whom urinary excretion of calcium remained normal: five of the six
Healthy subjects [2]; 14 days of treatment
  mean 24 h-uCa: not associated with an increase
Healthy subjects [2]; after 14 days of treatment, high-dose groups (above 40 μg/day)
  time mean sPh remained lower compared to placebo: 12 to 20 h
Healthy subjects [2]; all doses
  FECa: below 1.5%
Healthy subjects [2]; days 7 and 14, all doses
  repeated sCa measurements throughout 24 h post-dosing: stable values with little variation
Healthy subjects [2]; doses up to 60 μg
  time for ADsCa to return to near baseline after cessation of treatment: approximately 2 days
  time to stable ADsCa levels after the first administration: approximately 2 days
Healthy subjects [2]; increasing doses for 14 consecutive days
  serum levels of P1NP and CTX: did not alter
Animal models of HP
  serum calcium, urinary calcium excretion and bone resorption biomarkers: robust and sustained increases in serum calcium without increasing urinary calcium excretion or bone resorption biomarkers
[3]; single sc 5 μg, n = 2, mean ± SD
  AUC(0–∞): 0.399 ± 0.032 ng·h/mL
[3]; single sc 5 μg, n = 2, plasma
  Cmax: 6.82 ± 2.19 ng/mL
[3]; single sc 10 μg, n = 4, mean ± SD
  AUC(0–∞): 5.20 ± 3.38 ng·h/mL
[3]; single sc 10 μg, n = 4, plasma
  Cmax: 11.4 ± 4.32 ng/mL
[3]; single sc 20 μg, n = 6, mean ± SD
  AUC(0–∞): 9.55 ± 4.12 ng·h/mL
[3]; single sc 20 μg, n = 6, plasma
  Cmax: 24.1 ± 8.18 ng/mL
[3]; single sc 40 μg, n = 2, mean ± SD
  AUC(0–∞): 10.4 ± 13.4 (n = 2) ng·h/mL
[3]; single sc 40 μg, n = 3, plasma
  Cmax: 26.3 ± 4.79 ng/mL
[3]; single sc 60 μg, n = 6, mean ± SD
  AUC(0–∞): 16.8 ± 14.7 ng·h/mL
[3]; single sc 60 μg, n = 6, plasma
  Cmax: 28.5 ± 10.8 ng/mL
[3]; single sc 90 μg, n = 6, mean ± SD
  AUC(0–∞): 31.7 ± 12.5 ng·h/mL
[3]; single sc 90 μg, n = 6, plasma
  Cmax: 37.5 ± 11.6 ng/mL
[3]; single sc 120 μg, n = 6, mean ± SD
  AUC(0–∞): 26.1 ± 16.4 ng·h/mL
[3]; single sc 120 μg, n = 6, plasma
  Cmax: 57.4 ± 28.7 ng/mL
[3]; Parts A and B, sc, all doses
  median time to maximum plasma concentration: 5 to 20 min
[3]; SAD, single sc 10 to 120 μg, LLOQ 50 pg/mL
  detectability of eneboparatide in the circulation after administration: almost undetectable beyond 2 h after administration
[3]; human, plasma, 5 ug, single sc 5 μg, n = 2, median
  Tmax: 15 min
[3]; human, plasma, 10 ug, single sc 10 μg, n = 4, median
  Tmax: 13.2 min
[3]; human, plasma, 20 ug, single sc 20 μg, n = 6, median
  Tmax: 6 min
[3]; human, plasma, 40 ug, single sc 40 μg, n = 3, median
  Tmax: 4.8 min
[3]; human, plasma, 60 ug, single sc 60 μg, n = 6, median
  Tmax: 10.2 min
[3]; human, plasma, 90 ug, single sc 90 μg, n = 6, median
  Tmax: 19.8 min
[3]; human, plasma, 120 ug, single sc 120 μg, n = 6, median
  Tmax: 19.8 min
[3]; human, plasma, normal subjects, sc, read-out: circulating half-life
  half-life: < 120 min
Healthy subjects [4]
  anti-eneboparatide antibodies: no anti-eneboparatide antibodies detected
